Like-named read-outs stand apart in the source and are kept apart here.
What was measured:
[1] = system: CFPAC-1; assay: MTT cytotoxicity assay, 72 h; format: cell-based, human; conditions: Homo sapiens, CFPAC-1, IC50 ± SD
Procedure: (§1) In our study, the human cancer cell lines used were CFAPC- 1 (pancreatic adenocarcinoma); NCI-H460 (large cell lung); HL-60 (acute promyelocytic leukaemia); CACO2 (colorectal adenocarcinoma); HCT-116 (colorectal carcinoma); K562 (chronic myeloid leukaemia); MCF-7 (breast adenocarcinoma); and MRC-5 control cells (normal fibroblasts).
(§2) CFAPC-1, NCI-H460 H1975, HL-60, HCT-116, CACO2, K562, MCF-7, and MCR-5 were grown and maintained in RPMI 1640 and DMEM F12 as appropriate with 10% fetal bovine serum, 100 UI/mL penicillin–streptomycin, and cultured al 37 °C in 5% CO2 humidified atmosphere. Control cultures were treated with dimethyl sulfoxide (1%) alone at the same concentration as in the purine derivatives treatment. Cell viability was determined by trypan blue dye exclusion. Cell numbers were counted in hemocytometer by light microscopy.
(§3) Cytotoxicity assays were performed by using the MTT reduction method as described in the literature. Briefly, cancer cell lines were plated in a flat-bottom 96-wells plate at 1 × 10^4 cells per well density. Then, the cells were incubated with synthetized compounds at different concentrations (from 0.1 to 100 µM) in 200 µL of 10% fetal bovine serum-RPMI or EMEM culture medium at 37 °C for 72 h. Then, 10 µL of MTT was added at a final concentration of 0.5 mg/mL, incubated at 37 °C for 4 h, and then solubilized with 10% sodium dodecyl sulphate (SDS) in 0.1 mM HCl and incubated overnight at 37 °C. Formazan formation was measured at 570 nm in a multi-well reader (StatFax 4200).

[2] = system: HCT-116; assay: MTT cytotoxicity assay, 72 h; format: cell-based, human; conditions: Homo sapiens, HCT-116, IC50 ± SD
Procedure: as §1, §2, §3

[3] = system: HL-60; assay: MTT cytotoxicity assay, 72 h; format: cell-based, human; conditions: for Selectivity Index (SI) MRC-5/HL-60: IC50 in MRC-5 / IC50 in HL-60
Procedure: as §1, §2, §3

[4] = system: K562; assay: MTT cytotoxicity assay, 72 h; format: cell-based, human; conditions: for IC50: MTT, 72 h, IC50 ± SD; for Selectivity Index (SI) MRC-5/K562: IC50 in MRC-5 / IC50 in K562
Procedure: as §1, §2, §3

[5] = system: MCF-7; assay: MTT cytotoxicity assay, 72 h; format: cell-based, human; conditions: for IC50: Homo sapiens, MCF7, 72 h, MTT, 72 h, IC50 ± SD; for Selectivity Index (SI) MRC-5/MCF-7: IC50 in MRC-5 / IC50 in MCF-7
Procedure: as §1, §2, §3

[6] = system: NCI-H460; assay: MTT cytotoxicity assay, 72 h; format: cell-based, human; conditions: for Selectivity Index (SI) MRC-5/NCI-H460: IC50 in MRC-5 / IC50 in NCI-H460
Procedure: as §1, §2, §3

[7] = system: CACO2; assay: MTT cytotoxicity assay, 72 h; format: cell-based, human; conditions: Homo sapiens, Caco-2, IC50 ± SD
Procedure: Cytotoxicity assays were performed by using the MTT reduction method as described in the literature [23, 37]. Briefly, cancer cell lines were plated in a flat-bottom 96-wells plate at 1 × 10^4 cells per well density. Then, the cells were incubated with synthetized compounds at different concentrations (from 0.1 to 100 µM) in 200 µL of 10% fetal bovine serum-RPMI or EMEM culture medium at 37 °C for 72 h. Then, 10 µL of MTT was added at a final concentration of 0.5 mg/mL, incubated at 37 °C for 4 h, and then solubilized with 10% sodium dodecyl sulphate (SDS) in 0.1 mM HCl and incubated overnight at 37 °C. Formazan formation was measured at 570 nm in a multi-well reader (StatFax 4200).

[8] = system: MRC-5; assay: MTT cytotoxicity assay, 72 h, normal control cells; format: cell-based, human; conditions: Homo sapiens, MRC5, IC50 ± SD, normal fibroblasts
Procedure: as §1, §2, §3

[9] = system: HL-60 cells; assay: Cell viability by propidium iodide flow cytometry; format: cell-based, human; conditions: HL-60, 50 μM, 24 h, PI staining
Source text: Next, in order to determinate the cell death type induced by the most promising compounds, we performed a flow cytometry analysis of cell viability in cell line HL-60 treated with the most promising compounds (selected according to their IC50 values and SI). The HL-60 cancer cells were chosen due to their sensitivity to prepared compounds. […] As a preliminary apoptosis filter, propidium iodide (PI) staining was used through flow cytometry analysis which discriminated a population of viable cells impermeable to PI (PI negative) from necrotic cells PI-permeable (PI positive) and apoptotic cells (the difference of the previous two). The results are shown in Figure 7, illustrating that all purine derivatives tested induced apoptosis on HL-60 cells. Around 40% of apoptotic cells were detected in a culture treated with compounds 7a and 7i, 30% by 7e, 7g, and 7h and 70% by 7d and 7j. […] (For dot plots, see Supplementary Information Figures S1–S3.)
Cell viability was analyzed by flow cytometry as previously described. In this assay, after setting the baseline to exclude cell debris, cells impermeable to propidium iodide (PI negative) are considered as viable. Two populations of PI-permeable dead cells are distinguished based on fluorescence intensity, corresponding to either hypodiploid apoptotic cells or necrotic cells with intact DNA. Here, HL60 cells were incubated with concentrations of 50 µM of each compound for 24 h at 37 °C. Cells were harvested and stained with 10 µg/mL of propidium iodide to determine cell viability. Samples containing roughly 1 × 10^4 cells were evaluated by flow cytometry (FACScanto II; Becton Dickinson, Mountain View, CA) and analyzed using FCS Express v6 software. Three independent biological replicates were performed.

[10] = system: pERK1/2; assay: Western blotting of pERK1/2 in MCF-7 cells; format: cell-based, human; conditions: 10 µM, 1 h
Procedure: Cell lysates were prepared by harvesting cells in Laemmli sample buffer. Proteins were separated on SDS polyacrylamide gels and electroblotted onto nitrocellulose membranes. After blocking, the membranes were incubated with specific primary antibodies overnight, washed, and then incubated with peroxidase-conjugated secondary antibodies. Finally, peroxidase activity was detected with SuperSignal West Pico reagents (Thermo Scientific, Waltham, MA, USA) using a CCD camera LAS-4000 (Fujifilm). Specific antibodies were purchased from Sigma-Aldrich (anti-α-tubulin, clone DM1A; peroxidase-labeled secondary antibodies) and Cell Signaling (anti-PARP, clone 46D11; anti-ERK1/2; anti-phospho-ERK1/2 T202/Y204).

[11] = system: MCF7 cells; assay: Cell cycle distribution of MCF7 cells; format: cell-based, human; conditions: Figure S5
[12] = system: cancer cell lines; conditions: cited from earlier work
[13] = system: p53; assay: p53-dependent transcriptional activity reporter assay (β-galactosidase) in Arn-8 cells; format: cell-based, human; conditions: Arn-8 cells, 24 h incubation, Table S3, control compound
Procedure: Table S3. Results of p53 activity of compounds 4a-u and 7a-j.
Compound fold p53 activity […]
p53-dependent transcriptional activity
To measure p53-dependent transcriptional activity, -galactosidase activity was determined in the human melanoma cell line Arn-8, stably transfected with a p53-responsive reporter construct pRGC foslacZ as described before. After 24 h incubation with the inhibitors, the cells were permeabilized with 0.3% Triton X-100 for 15 min, and then 4-methylumbelliferon-ß-D-galactopyranoside was added as a substrate to a final concentration of 80 µM. […]
fluorescence was measured at 355/460 nm (ex/em) with a Fluoroskan Ascent microplate reader […]
Figure S6. Dose-response effect of roscovitine on p53 activity in ARN8 cells (control experiment).
(1 picture or pasted object on this page, not shown here)

[14] = target: Hedgehog (Hh) signaling pathway; design: method as in PMID 24923765; conditions: cited from earlier work
[15] = Homo sapiens, HL-60, 72 h, MTT, 72 h, IC50 ± SD, read-out: IC50 HL-60
[16] = Homo sapiens, NCI-H460, 72 h, MTT, 72 h, IC50 ± SD, read-out: IC50 NCI-H460
[17] = Homo sapiens, HL-60, -logIC50 in molar concentration, Table S1, read-out: Experimental pIC50 (HL-60) (converted)
[18] = Homo sapiens, NCI-H460, -logIC50 in molar concentration, Table S2, read-out: Experimental pIC50 (NCI-H460) (converted)
[19] = MTT, 72 h, IC50 ± SD, read-out: IC50 NCI-H460

melting point [°C]	Structure (SMILES)	IC50 [1] [µM]	IC50 [2] [µM]	IC50 [3, 15] [µM]	IC50 ([4]; Homo sapiens, K562, 72 h) [µM]	IC50 [5] [µM]	IC50 [6, 16] [µM]	IC50 [7] [µM]	IC50 [8] [µM]	IC50 [3, 17] [µM]	Selectivity Index (SI) MRC-5/HL-60 [3]	further results
85 to 87	CCn1cnc2c(-c3ccc(OC(F)(F)F)cc3)nc(NC3CCCC3)nc21 [4a, N-cyclopentyl-9-ethyl-6-(4-(trifluoromethoxy)phenyl)-9H-purin-2-amine]	> 100	> 50	38 ± 3	> 25	> 25	> 100	> 100	> 100			
72 to 74	CCCCn1cnc2c(-c3ccc(OC(F)(F)F)cc3)nc(NC3CCCCCC3)nc21 [4i, 9-Butyl-N-cycloheptyl-6-(4-(trifluoromethoxy)phenyl)-9H-purin-2-amine]	> 100	> 50	19 ± 3.9	> 25	> 25	> 100	> 100	> 100	19		
50 to 53	CCCCCn1cnc2c(-c3ccc(OC(F)(F)F)cc3)nc(NC3CCCCCC3)nc21 [4j, N-cycloheptyl-9-pentyl-6-(4-(trifluoromethoxy)phenyl)-9H-purin-2-amine]	> 100	> 50	< 6	> 25	> 25	> 100	> 100	> 100	6	> 16.7	IC50 ([3]; MTT, 72 h, IC50 ± SD, read-out: IC50 HL-60): 6 ± 0.8 µM
68 to 70	CCCCCCn1cnc2c(-c3ccc(OC(F)(F)F)cc3)nc(NC3CCCCCC3)nc21 [4k, N-cycloheptyl-9-Hexyl-6-(4-(trifluoromethoxy)phenyl)-9H-purin-2-amine]	> 100	> 50	12 ± 0.6	> 25	> 25	> 100	> 100	> 100	12		
150 to 153	CCCCCn1cnc2c(-c3ccc(OC(F)(F)F)cc3)nc(N3CCC(c4ccccc4)CC3)nc21 [4t, 9-Pentyl-2-(4-phenylpiperidin-1-yl)-6-(4-(trifluoromethoxy)phenyl)-9H-purine]	> 100	> 50	> 50	> 25	> 25	> 100	> 100	> 100			
160 to 162	FC(F)(F)c1ccc(N2CCN(c3nc(Cl)nc4c3ncn4C3CCCC3)CC2)nc1 [7c, 2-Chloro-9-cyclopentyl-6-(4-(5-(trifluoromethyl)pyridin-2-yl)piperazin-1-yl)-9H-purine]	> 100	> 50	17 ± 2.3	0.4 to 1.5	0.52 ± 0.05	4.8	> 100	56 ± 1	17	3.3	Selectivity Index (SI) MRC-5/K562 [4]: 143.6; IC50 [4]: 0.39 ± 0.03 µM; Selectivity Index (SI) MRC-5/MCF-7 [5]: 107.7; IC50 [6, 18]: 4.79 µM; Selectivity Index (SI) MRC-5/NCI-H460 [6]: 11.7; IC50 [6, 19]: 4.79 ± 0.07 µM
	Clc1ccc(N2CCN(c3nc(Cl)nc4c3ncn4C3CCCC3)CC2)cc1 [7g, 2-Chloro-6-(4-(4-chlorophenyl)piperazin-1-yl)-9-cyclopentyl-9H-purine]	> 100	> 50	0.3 ± 0.06	0.71 ± 0.07	0.97 ± 0.07	2.2	> 100	2.54 ± 0.17	0.3	8.5	Selectivity Index (SI) MRC-5/K562 [4]: 3.6; Selectivity Index (SI) MRC-5/MCF-7 [5]: 2.6; IC50 [6, 18]: 2.21 µM; Selectivity Index (SI) MRC-5/NCI-H460 [6]: 1.1; IC50 [6, 19]: 2.21 ± 0.03 µM; apoptotic cells [9]: ~30%; level of mitogenic transducer pERK1/2 [10]: potently reduced; population of MCF7 cells in the G1-phase [11]: slightly increased
	COc1ccc(N2CCN(c3nc(Cl)nc4c3ncn4C3CCCC3)CC2)cc1 [7j, 2-Chloro-9-cyclopentyl-6-(4-(4-methoxyphenyl)piperazin-1-yl)-9H-purine]	> 100	> 50	1.5 ± 0.07	3.38 ± 0.71	6.61 ± 0.67	< 10	> 100	30 ± 1	1.5	20.0	Selectivity Index (SI) MRC-5/K562 [4]: 8.8; Selectivity Index (SI) MRC-5/MCF-7 [5]: 4.5; IC50 [6, 18]: 7.08 µM; Selectivity Index (SI) MRC-5/NCI-H460 [6]: 4.2; IC50 [6, 19]: 7.08 ± 0.22 µM; apoptotic cells [9]: ~70%
	OC[C@H]1O[C@@H](n2cnc3c(N4CCN(c5ccc(C(F)(F)F)cc5)CC4)nc(Cl)nc32)[C@H](O)[C@@H]1O [II]											IC50 on some cancer cell lines [12]: sub-micromolar
	FC(F)(F)c1ccc(N2CCN(c3ncnc4c3ncn4C3CCCC3)CC2)cc1 [I]											IC50 on some cancer cell lines [12]: sub-micromolar
	CC[C@H](CO)Nc1nc(NCc2ccccc2)c2ncn(C(C)C)c2n1 [Roscovitine, reference compound]											fold p53 activity [13]: 33.9
	CCNCc1ccc(C)c(NC(=O)c2ccc(Nc3nc(-c4ccc(OC(F)(F)F)cc4)c4ncn(C)c4n3)cc2)c1 [V]											IC50 in Gli-luciferase reporter assay [14]: nanomolar scale
